The results in this text go back to the Biogen ADME set (Fang et al. 2023).

In brackets after ≈: the same amount, converted by molar mass.

The conditions of this data set: for aqueous solubility: pH 6.8.

Take `CCOCCC(=O)N1CCC2(CCCN(C)CC2)CC1`: the MDR1-MDCK efflux ratio amounted to 2.92; the intrinsic clearance, human liver microsomes is at most 4.74 mL/min/kg; the intrinsic clearance, rat liver microsomes was determined as 30.6 mL/min/kg.

`CCn1ncc(-c2cc(C(F)F)nc(NCCCOC)n2)c1C`: the MDR1-MDCK efflux ratio came out at 0.525; the intrinsic clearance, human liver microsomes was found to be 43.6 mL/min/kg; the intrinsic clearance, rat liver microsomes came out at 412 mL/min/kg; the aqueous solubility (as a rule, the concentration that dissolves in the medium under given conditions) was 44.7 µg/mL (≈ 137 µM).

`N#CCN1CCCN(Cc2ccc(C#N)cc2)CC1`: the intrinsic clearance, human liver microsomes came out at 65.5 mL/min/kg; the intrinsic clearance, rat liver microsomes is 267 mL/min/kg; the aqueous solubility was found to be 37.8 µg/mL (≈ 149 µM).

As for `COc1ccccc1-n1cc2c(c1-c1ccccc1Br)c(=O)n(C)c(=O)n2C`, the MDR1-MDCK efflux ratio was 2.26 and the aqueous solubility is 0.81 µg/mL (≈ 1.84 µM).

In the case of `Cc1ccc2nc(-c3ccc(N(C)C)cc3)[nH]c2c1`, the MDR1-MDCK efflux ratio came out at 0.316; the intrinsic clearance, human liver microsomes was 120 mL/min/kg; the intrinsic clearance, rat liver microsomes was 2530 mL/min/kg; the aqueous solubility was found to be 11.4 µg/mL (≈ 45.5 µM).

As for `Cc1cccc(C)c1CNC1(CCO)CCOCC1`, the MDR1-MDCK efflux ratio amounted to 0.972; the intrinsic clearance, human liver microsomes is at most 4.74 mL/min/kg; the intrinsic clearance, rat liver microsomes was found to be 74.3 mL/min/kg.

Turning to `COCc1nn(CCCN2CCCCC2)c(=O)o1`, the MDR1-MDCK efflux ratio was found to be 0.662; the intrinsic clearance, human liver microsomes is at most 4.74 mL/min/kg; the intrinsic clearance, rat liver microsomes stood at 370 mL/min/kg.

Regarding `Cc1cnn(Cc2nnc(-c3ccccc3)s2)c1`, the MDR1-MDCK efflux ratio is 0.554; the intrinsic clearance, human liver microsomes worked out at 44 mL/min/kg; the intrinsic clearance, rat liver microsomes turned out to be 449 mL/min/kg; the aqueous solubility was 22.5 µg/mL (≈ 87.8 µM).

Regarding `Cn1cc(-c2ccc(-c3cncc(Cl)c3N3CCC4(CCNC4=O)CC3)cc2)cn1`, the MDR1-MDCK efflux ratio amounted to 61.1; the intrinsic clearance, human liver microsomes stood at 65.7 mL/min/kg; the intrinsic clearance, rat liver microsomes was found to be 308 mL/min/kg; the aqueous solubility was found to be 3.11 µg/mL (≈ 7.37 µM).

Consider `Cc1cc(OCC(=O)N2CCC(n3c(=O)[nH]c4ccccc43)CC2)ccc1Cl`, for which the intrinsic clearance, human liver microsomes was found to be 432 mL/min/kg and the intrinsic clearance, rat liver microsomes is 1450 mL/min/kg.

For the compound `Clc1ccc(C2(c3ccc(-c4cn[nH]c4)cc3)CCNCC2)cc1`, the MDR1-MDCK efflux ratio is 99; the intrinsic clearance, human liver microsomes is at most 4.74 mL/min/kg; the intrinsic clearance, rat liver microsomes was at most 10.7 mL/min/kg; the aqueous solubility was 18.5 µg/mL (≈ 54.8 µM).

For `O=C(NCC1CC1)c1ccc(-n2ccnc2)nc1`, the MDR1-MDCK efflux ratio was 1.08; the intrinsic clearance, human liver microsomes is at most 4.74 mL/min/kg; the intrinsic clearance, rat liver microsomes was determined as 23.2 mL/min/kg; the aqueous solubility is 45.2 µg/mL (≈ 186 µM).

Turning to `COc1cc2nc(N)sc2cc1OC`, the MDR1-MDCK efflux ratio was determined as 0.668; the intrinsic clearance, human liver microsomes is at most 4.74 mL/min/kg; the intrinsic clearance, rat liver microsomes stood at 12.6 mL/min/kg; the aqueous solubility is 32.6 µg/mL (≈ 155 µM).

With `CN(c1ccccc1N)S(C)(=O)=O`, the intrinsic clearance, human liver microsomes worked out at 10.2 mL/min/kg and the intrinsic clearance, rat liver microsomes was found to be 24.1 mL/min/kg.

Take `O=c1[nH]c2ccccc2n1C1CCN(CCOc2ccccc2)CC1`: the MDR1-MDCK efflux ratio came to 2.14; the intrinsic clearance, human liver microsomes turned out to be 29.6 mL/min/kg; the intrinsic clearance, rat liver microsomes worked out at 357 mL/min/kg; the aqueous solubility worked out at 47.4 µg/mL (≈ 140 µM).

Take `CC(C)CC(=O)NCC(=O)N1CCCC1`: the MDR1-MDCK efflux ratio stood at 1.2; the intrinsic clearance, human liver microsomes is at most 4.74 mL/min/kg; the intrinsic clearance, rat liver microsomes was at most 10.7 mL/min/kg; the aqueous solubility worked out at 61.5 µg/mL (≈ 290 µM).

On to `CN1CCN(C(=O)C2(NC(=O)c3cc(Cl)c4c(c3)OCO4)CCCC2)CC1`, for which the intrinsic clearance, human liver microsomes is at most 4.74 mL/min/kg; the intrinsic clearance, rat liver microsomes is 37.7 mL/min/kg; the aqueous solubility worked out at 79 µg/mL (≈ 201 µM).

In the case of `CCCn1cnnc1CN(C)Cc1ccc(C(F)(F)F)nc1`, the MDR1-MDCK efflux ratio came to 23.6; the intrinsic clearance, human liver microsomes was at most 4.74 mL/min/kg; the intrinsic clearance, rat liver microsomes was 29.5 mL/min/kg.

Take `COc1cc2c(cc1OC)CN(C(=O)C1CCCN(C(=O)OC(C)(C)C)C1)CC2` (configuration not stated): the MDR1-MDCK efflux ratio came to 1.79; the intrinsic clearance, human liver microsomes was 106 mL/min/kg; the intrinsic clearance, rat liver microsomes was found to be 643 mL/min/kg; the aqueous solubility was 61.9 µg/mL (≈ 153 µM).

Regarding `CC(=O)Nc1cc(CCC2CCNCC2)ccn1`, the MDR1-MDCK efflux ratio was 2.42; the intrinsic clearance, human liver microsomes is at most 4.74 mL/min/kg; the intrinsic clearance, rat liver microsomes was at most 10.7 mL/min/kg; the aqueous solubility came to 51 µg/mL (≈ 206 µM).

`O=C(NCCN1CCC(O)(c2cccc(F)c2)CC1)c1cccc(F)c1`: the MDR1-MDCK efflux ratio was found to be 5.65; the intrinsic clearance, human liver microsomes turned out to be 9.11 mL/min/kg; the intrinsic clearance, rat liver microsomes was 245 mL/min/kg; the aqueous solubility worked out at 53.5 µg/mL (≈ 148 µM).

`Cn1cc(-c2nc(C(F)(F)F)c[nH]2)cn1` registered an aqueous solubility of 40.2 µg/mL (≈ 186 µM).

As to `CCC(=O)N1CCN(c2ccc(Cl)cc2NC(=O)COc2ccccc2)CC1`, the MDR1-MDCK efflux ratio stood at 0.871; the fraction unbound, human plasma was 0.0178; the intrinsic clearance, human liver microsomes was determined as 88.4 mL/min/kg; the intrinsic clearance, rat liver microsomes worked out at 1840 mL/min/kg.

As for `Cc1ccccc1S(=O)(=O)N[C@@H]1CC[C@@H](O)[C@@H]1O`, the intrinsic clearance, human liver microsomes was at most 4.74 mL/min/kg and the intrinsic clearance, rat liver microsomes amounted to 17.7 mL/min/kg.

In the case of `Cc1cccc(C)c1OCCn1nnnc1C`, the MDR1-MDCK efflux ratio was 0.657; the intrinsic clearance, human liver microsomes is at most 4.74 mL/min/kg; the intrinsic clearance, rat liver microsomes stood at 97.1 mL/min/kg.

For the compound `O=C(CSCCc1ccccn1)Nc1ccccc1`, the MDR1-MDCK efflux ratio stood at 0.518; the intrinsic clearance, human liver microsomes stood at 42.1 mL/min/kg; the intrinsic clearance, rat liver microsomes came out at 2670 mL/min/kg.

With `Cc1ccc(OCC2(O)CCN(CC3(O)CCN(c4ccccc4C)CC3)CC2)cc1`, the MDR1-MDCK efflux ratio turned out to be 0.655; the fraction unbound, human plasma was determined as 0.00911; the intrinsic clearance, human liver microsomes was found to be 400 mL/min/kg.

Turning to `Cc1cc(C)nc(CNC(=O)CC2CCNCC2)n1`, the intrinsic clearance, human liver microsomes is at most 4.74 mL/min/kg; the intrinsic clearance, rat liver microsomes is at most 10.7 mL/min/kg; the aqueous solubility was found to be 55.5 µg/mL (≈ 212 µM).

Turning to `CS(=O)(=O)NCCN1CCc2c(Cl)cc(Cl)cc2C1`, the MDR1-MDCK efflux ratio was 0.707; the intrinsic clearance, human liver microsomes is 14.3 mL/min/kg; the intrinsic clearance, rat liver microsomes was found to be 400 mL/min/kg.

For `CC(C)(C)C(=O)Nc1sc2c(c1C#N)CCC2`, the aqueous solubility was determined as 1.91 µg/mL (≈ 7.69 µM).

Turning to `O=C(CCc1ccccc1)N1CCC(c2cccc(Cc3ccc(F)cc3)n2)CC1`, the MDR1-MDCK efflux ratio was 0.727; the intrinsic clearance, human liver microsomes was found to be 1000 mL/min/kg; the intrinsic clearance, rat liver microsomes stood at 4270 mL/min/kg; the aqueous solubility was 4.5 µg/mL (≈ 11.2 µM).

Compound `NCc1nnc(CCc2ccccc2)o1` yielded an intrinsic clearance, human liver microsomes of at most 4.74 mL/min/kg and an intrinsic clearance, rat liver microsomes of at most 10.7 mL/min/kg.

Compound `CCc1cc2c(Nc3cnn(CC)c3)ncnc2s1` returned an intrinsic clearance, human liver microsomes of 40.7 mL/min/kg; an intrinsic clearance, rat liver microsomes of 102 mL/min/kg; an aqueous solubility of 43 µg/mL (≈ 157 µM).

Consider `c1cnc(NCCc2cccc3cccnc23)nc1`, for which the intrinsic clearance, human liver microsomes came to 105 mL/min/kg; the intrinsic clearance, rat liver microsomes is 879 mL/min/kg; the aqueous solubility was 37 µg/mL (≈ 148 µM).

In the case of `O=C(CSc1nc2nc(O)cc(O)c2s1)c1ccc(-c2ccccc2)cc1`, the MDR1-MDCK efflux ratio stood at 0.876; the intrinsic clearance, human liver microsomes was determined as 139 mL/min/kg; the intrinsic clearance, rat liver microsomes turned out to be 128 mL/min/kg; the aqueous solubility is 7 µg/mL (≈ 17.7 µM).

For the compound `CCc1cc(NC(=O)Cc2c(C)nc3nc(SC)nn3c2C)[nH]n1`, the aqueous solubility came to 15.8 µg/mL (≈ 45.8 µM).

For the compound `CC(=O)Nc1ccc(C(=O)N2CCCCC2c2nc(N)ncc2-c2ccc(Cl)cc2)cc1` (configuration not stated), the MDR1-MDCK efflux ratio was 106; the fraction unbound, human plasma is 0.0395; the fraction unbound, rat plasma amounted to 0.0355; the intrinsic clearance, human liver microsomes is 40.7 mL/min/kg. This compound registered an intrinsic clearance, rat liver microsomes of 643 mL/min/kg and an aqueous solubility of 57.8 µg/mL (≈ 128 µM).

On to `CC(C)N1CCC(O)(c2ccccc2F)CC1`, for which the MDR1-MDCK efflux ratio came to 0.537; the intrinsic clearance, human liver microsomes is at most 4.74 mL/min/kg; the intrinsic clearance, rat liver microsomes was 362 mL/min/kg; the aqueous solubility is 41.5 µg/mL (≈ 175 µM).

In the case of `C#CCOc1ccc(C(=O)NN2CCCC2=O)cc1`, the MDR1-MDCK efflux ratio was determined as 1.32; the intrinsic clearance, human liver microsomes is at most 4.74 mL/min/kg; the intrinsic clearance, rat liver microsomes was at most 10.7 mL/min/kg; the aqueous solubility worked out at 25.3 µg/mL (≈ 97.9 µM).

For `Cc1nc(CC2CCN(S(=O)(=O)c3cn(C)cn3)CC2)cc(NC2CCCC2)n1`, the MDR1-MDCK efflux ratio is 37.4; the intrinsic clearance, human liver microsomes came to 9.96 mL/min/kg; the intrinsic clearance, rat liver microsomes worked out at 90.9 mL/min/kg; the aqueous solubility amounted to 59.5 µg/mL (≈ 142 µM).

In the case of `COc1cc2cc3c(nc2cc1OC)OCCN(C1CCCCC1)C3`, the MDR1-MDCK efflux ratio was 1.3; the intrinsic clearance, human liver microsomes was found to be 33.2 mL/min/kg; the intrinsic clearance, rat liver microsomes came to 1680 mL/min/kg.

Regarding `CC1=C(Br)CN(CCc2nc3ccccc3c(=O)[nH]2)CC1`, the MDR1-MDCK efflux ratio turned out to be 0.856; the intrinsic clearance, human liver microsomes is 133 mL/min/kg; the intrinsic clearance, rat liver microsomes was 2050 mL/min/kg.

With `CSCc1noc(COc2ccc(F)cc2F)n1`, the aqueous solubility was found to be 17.3 µg/mL (≈ 63.5 µM).

Consider `CN1CCC(NC(=O)COc2ccc(C#N)cc2)CC1`, for which the MDR1-MDCK efflux ratio was 2.44; the intrinsic clearance, human liver microsomes was at most 4.74 mL/min/kg; the intrinsic clearance, rat liver microsomes is at most 10.7 mL/min/kg; the aqueous solubility is 35.2 µg/mL (≈ 129 µM).

`CNCC(=O)Nc1cc(Cl)c(OCCOC)c(Cl)c1` returned an aqueous solubility of 87.3 µg/mL (≈ 284 µM).

Take `COc1ccc(-c2nnc3ccc(C(F)(F)F)cn23)cc1OC(C)C`: the MDR1-MDCK efflux ratio came to 1.11; the intrinsic clearance, human liver microsomes amounted to 31.2 mL/min/kg; the intrinsic clearance, rat liver microsomes stood at 132 mL/min/kg; the aqueous solubility was determined as 22.9 µg/mL (≈ 65.2 µM).

For the compound `Cc1cc(NC(=O)CN(C)CCOc2ccccc2)on1`, the MDR1-MDCK efflux ratio stood at 0.516; the intrinsic clearance, human liver microsomes stood at 166 mL/min/kg; the intrinsic clearance, rat liver microsomes was determined as 622 mL/min/kg.

For `COc1cc2c(cc1OC)CN(CCc1ccc(NC(=O)c3cccc4c(O)c5cccc(OC)c5nc34)cc1)CC2`, the fraction unbound, human plasma was determined as 0.00062 and the fraction unbound, rat plasma amounted to 0.00051.

With `CN1CC(=O)N(CCOc2ccccc2)C1=O`, the aqueous solubility is 23.1 µg/mL (≈ 98.4 µM).
